Measured values: US3960833A, “Butirosin A 3",5"-O-isopropylidene derivatives” (Bristol-Myers Company, priority 1975, dated 1976)
Values after ≈ are worked out from the molar mass of the structure shown.

Columns and labels:
Assay in all cases: MIC by Steers agar-dilution method on Mueller-Hinton medium
Type in all cases: cell-based
E. coli ML1630 = details: Escherichia coli; E. coli ML1630; Mueller-Hinton medium; read-out: MIC
Description: (§1) Illustrated below is a table showing the minimal inhibitory concentrations (MIC's) of butirosin A, 4'-deoxybutirosin A and compound 11 (BB-K186) against a variety of gram-positive and gram-negativebacteria as obtained by the Steers agar-dilution method on Mueller-Hinton medium.

E. coli A20107 = details: Escherichia coli; E. coli A20107; Mueller-Hinton medium; read-out: MIC
Description: as §1

E. coli NIHJ = details: Escherichia coli; E. coli NIHJ; Mueller-Hinton medium; read-out: MIC
Description: as §1

Ps. aeruginosa GN-315 = details: Pseudomonas aeruginosa, GN315; Ps. aeruginosa GN-315; Mueller-Hinton medium; read-out: MIC
Description: as §1

Ps. aeruginosa A20896 = details: Pseudomonas aeruginosa; Ps. aeruginosa A20896; Mueller-Hinton medium; read-out: MIC
Description: as §1

Ent. cloacae A21006 = details: Enterobacter cloacae; Ent. cloacae A21006; Mueller-Hinton medium; read-out: MIC
Description: as §1

Ps. aeruginosa A20601 = details: Pseudomonas aeruginosa; Ps. aeruginosa A20601; Mueller-Hinton medium; read-out: MIC
Description: as §1

E. coli A20895 = details: Escherichia coli; E. coli A20895; Mueller-Hinton medium; read-out: MIC
Description: as §1

Ser. marcescens A21247 = details: Serratia marcescens; Ser. marcescens A21247; Mueller-Hinton medium; read-out: MIC
Description: as §1

K. pneumoniae D11 = details: Klebsiella pneumoniae; K. pneumoniae D11; Mueller-Hinton medium; read-out: MIC
Description: as §1

Pr. vulgaris A9436 = details: Proteus vulgaris; Pr. vulgaris A9436; Mueller-Hinton medium; read-out: MIC
Description: as §1

Prov. stuartii A20894 = details: Providencia stuartii; Prov. stuartii A20894; Mueller-Hinton medium; read-out: MIC
Description: as §1

S. aureus D133 = details: Staphylococcus aureus; S. aureus D133; Mueller-Hinton medium; read-out: MIC
Description: as §1

Pr. mirabilis A9554 = details: Proteus mirabilis; Pr. mirabilis A9554; Mueller-Hinton medium; read-out: MIC
Description: as §1

S. aureus D137 = details: Staphylococcus aureus; S. aureus D137; Mueller-Hinton medium; read-out: MIC
Description: as §1

Pseudomonas sp. A20621 = details: Pseudomonas sp. A20621; Mueller-Hinton medium; read-out: MIC
Description: as §1

S. aureus Smith = details: Staphylococcus aureus; S. aureus Smith; Mueller-Hinton medium; read-out: MIC
Description: as §1

Ser. marcescens A20019 = details: Serratia marcescens; Ser. marcescens A20019; Mueller-Hinton medium; read-out: MIC
Description: as §1

E. coli NR79/W677 = details: Escherichia coli
Description: as §1

E. coli JR66/W677 = details: Escherichia coli
Description: as §1

Ent. cloacae A20364 = details: Enterobacter cloacae; Ent. cloacae A20364; Mueller-Hinton medium; read-out: MIC
Description: as §1

Pr. morganii A20031 = details: Morganella morganii; Pr. morganii A20031; Mueller-Hinton medium; read-out: MIC
Description: as §1

Ps. aeruginosa A9930 = details: Pseudomonas aeruginosa; Ps. aeruginosa A9930; Mueller-Hinton medium; read-out: MIC
Description: as §1

E. coli PO1495 = details: Escherichia coli
Description: as §1

Ps. aeruginosa A20635 = details: Pseudomonas aeruginosa; Ps. aeruginosa A20635; Mueller-Hinton medium; read-out: MIC
Description: as §1

E. coli JR35/C600 = details: Escherichia coli
Description: as §1

K. pneumoniae 22-3038 = details: Klebsiella pneumoniae, 223038; K. pneumoniae 22-3038; Mueller-Hinton medium; read-out: MIC
Description: as §1

S. aureus D193 = details: Staphylococcus aureus; S. aureus D193; Mueller-Hinton medium; read-out: MIC
Description: as §1

S. aureus A20239 = details: Staphylococcus aureus; S. aureus A20239; Mueller-Hinton medium; read-out: MIC
Description: as §1

E. coli R5 = details: Escherichia coli; E. coli R5; Mueller-Hinton medium; read-out: MIC
Description: as §1

Ps. aeruginosa No. 130 = details: Pseudomonas aeruginosa; Ps. aeruginosa No. 130; Mueller-Hinton medium; read-out: MIC
Description: as §1

E. coli A20732 = details: Escherichia coli; E. coli A20732; Mueller-Hinton medium; read-out: MIC
Description: as §1

Q: `NCC[C@H](O)C(=O)N[C@@H]1C[C@H](N)[C@@H](O[C@H]2O[C@H](CN)C[C@H](O)[C@H]2N)[C@H](O[C@@H]2O[C@H](CO)[C@H](O)[C@H]2O)[C@H]1O` [Bu-1975C1, 4'-deoxybutirosin A] was tested. Which MIC (E. coli ML1630) did it give?
A: 3.1 µg/mL (≈ 5.75 µM)

Q: What about the MIC (E. coli A20107) of the same compound?
A: 3.1 µg/mL (≈ 5.75 µM)

Q: And the MIC (E. coli NIHJ)?
A: 1.6 µg/mL (≈ 2.97 µM)

Q: What about the MIC (Ps. aeruginosa GN-315) of the same compound?
A: > 100 µg/mL

Q: And the MIC (Ps. aeruginosa A20896)?
A: 50 µg/mL (≈ 92.7 µM)

Q: What about the MIC (Ent. cloacae A21006) of the same compound?
A: 6.3 µg/mL (≈ 11.7 µM)

Q: And the MIC (Ps. aeruginosa A20601)?
A: 25 µg/mL (≈ 46.3 µM)

Q: What about the MIC (E. coli A20895) of the same compound?
A: 3.1 µg/mL (≈ 5.75 µM)

Q: What about the MIC (Ser. marcescens A21247) of the same compound?
A: 6.3 µg/mL (≈ 11.7 µM)

Q: What about the MIC (K. pneumoniae D11) of the same compound?
A: 0.8 µg/mL (≈ 1.48 µM)

Q: And the MIC (Pr. vulgaris A9436)?
A: 0.8 µg/mL (≈ 1.48 µM)

Q: And the MIC (Prov. stuartii A20894)?
A: > 100 µg/mL

Q: What about the MIC (S. aureus D133) of the same compound?
A: 6.3 µg/mL (≈ 11.7 µM)

Q: And the MIC (Pr. mirabilis A9554)?
A: 1.6 µg/mL (≈ 2.97 µM)

Q: What about the MIC (S. aureus D137) of the same compound?
A: 25 µg/mL (≈ 46.3 µM)

Q: And the MIC (Pseudomonas sp. A20621)?
A: > 100 µg/mL

Q: What about the MIC (S. aureus Smith) of the same compound?
A: 1.6 µg/mL (≈ 2.97 µM)

Q: And the MIC (Ser. marcescens A20019)?
A: 6.3 µg/mL (≈ 11.7 µM)

Q: What about the MIC (E. coli NR79/W677) of the same compound?
A: > 100 µg/mL

Q: What about the MIC (E. coli JR66/W677) of the same compound?
A: 6.3 µg/mL (≈ 11.7 µM)

Q: What about the MIC (Ent. cloacae A20364) of the same compound?
A: 3.1 µg/mL (≈ 5.75 µM)

Q: What about the MIC (Pr. morganii A20031) of the same compound?
A: 3.1 µg/mL (≈ 5.75 µM)

Q: And the MIC (Ps. aeruginosa A9930)?
A: 1.6 µg/mL (≈ 2.97 µM)

Q: What about the MIC (E. coli PO1495) of the same compound?
A: 1.6 µg/mL (≈ 2.97 µM)

Q: What about the MIC (Ps. aeruginosa A20635) of the same compound?
A: > 100 µg/mL

Q: What about the MIC (E. coli JR35/C600) of the same compound?
A: 0.8 µg/mL (≈ 1.48 µM)

Q: And the MIC (K. pneumoniae 22-3038)?
A: 6.3 µg/mL (≈ 11.7 µM)

Q: What about the MIC (S. aureus D193) of the same compound?
A: 3.1 µg/mL (≈ 5.75 µM)

Q: And the MIC (S. aureus A20239)?
A: 6.3 µg/mL (≈ 11.7 µM)

Q: And the MIC (E. coli R5)?
A: 3.1 µg/mL (≈ 5.75 µM)

Q: What about the MIC (Ps. aeruginosa No. 130) of the same compound?
A: 25 µg/mL (≈ 46.3 µM)

Q: And the MIC (E. coli A20732)?
A: 1.6 µg/mL (≈ 2.97 µM)
